The kinase profiling compilation of Christmann-Franck et al. (2016)

What was measured:
[1] = target: MAPK8 (human) (UniProt P45983); assay: KINOMEscan competition binding; settings: compound 10.0 µM
[2] = target: CDK16 (human) (UniProt Q00536); assay: KINOMEscan competition binding; settings: compound 10.0 µM
[3] = target: CSK (human) (UniProt P41240); assay: KINOMEscan competition binding; settings: compound 10.0 µM
[4] = target: TTK (human) (UniProt P33981); assay: KINOMEscan competition binding; settings: for kinase still bound, per cent of control: compound 10.0 µM
Sequence of TTK (human) (P33981 whole entry, looked up): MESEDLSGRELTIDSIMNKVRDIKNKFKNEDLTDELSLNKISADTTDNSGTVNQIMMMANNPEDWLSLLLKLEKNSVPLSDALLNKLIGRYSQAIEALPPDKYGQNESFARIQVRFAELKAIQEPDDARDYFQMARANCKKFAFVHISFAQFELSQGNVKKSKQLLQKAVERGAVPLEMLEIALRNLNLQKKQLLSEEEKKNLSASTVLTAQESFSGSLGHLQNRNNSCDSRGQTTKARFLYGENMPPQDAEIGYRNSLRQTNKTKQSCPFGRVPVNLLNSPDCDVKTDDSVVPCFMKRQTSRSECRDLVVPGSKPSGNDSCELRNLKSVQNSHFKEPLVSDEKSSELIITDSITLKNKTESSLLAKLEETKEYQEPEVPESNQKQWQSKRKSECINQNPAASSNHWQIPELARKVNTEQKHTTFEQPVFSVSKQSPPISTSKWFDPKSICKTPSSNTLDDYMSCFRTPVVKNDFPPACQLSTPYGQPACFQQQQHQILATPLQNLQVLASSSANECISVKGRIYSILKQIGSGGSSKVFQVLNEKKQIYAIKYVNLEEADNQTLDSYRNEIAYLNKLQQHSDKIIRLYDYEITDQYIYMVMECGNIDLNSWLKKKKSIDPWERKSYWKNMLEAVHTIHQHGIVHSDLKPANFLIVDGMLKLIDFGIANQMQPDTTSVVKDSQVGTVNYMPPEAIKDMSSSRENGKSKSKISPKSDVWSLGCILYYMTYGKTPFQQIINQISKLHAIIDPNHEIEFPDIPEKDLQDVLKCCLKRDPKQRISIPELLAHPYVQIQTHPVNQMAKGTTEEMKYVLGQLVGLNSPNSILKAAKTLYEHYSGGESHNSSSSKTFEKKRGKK

[5] = target: MAP2K3 (human) (UniProt P46734); assay: KINOMEscan competition binding; settings: compound 10.0 µM
[6] = target: PIM2 (human) (UniProt Q9P1W9); assay: KINOMEscan competition binding; settings: compound 10.0 µM
Sequence of PIM2 (human) (Q9P1W9 whole entry, looked up): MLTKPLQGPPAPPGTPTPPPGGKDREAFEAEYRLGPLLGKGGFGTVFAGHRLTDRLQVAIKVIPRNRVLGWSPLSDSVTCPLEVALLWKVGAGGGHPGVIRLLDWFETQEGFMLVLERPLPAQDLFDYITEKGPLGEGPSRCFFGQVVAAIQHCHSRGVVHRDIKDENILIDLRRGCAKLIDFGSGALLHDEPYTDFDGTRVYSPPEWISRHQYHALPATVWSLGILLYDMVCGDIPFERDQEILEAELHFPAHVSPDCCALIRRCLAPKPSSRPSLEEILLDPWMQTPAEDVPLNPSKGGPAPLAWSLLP

[7] = target: PIM1 (human) (UniProt P11309); assay: KINOMEscan competition binding; settings: compound 10.0 µM
Sequence of PIM1 (human) (P11309 whole entry, looked up): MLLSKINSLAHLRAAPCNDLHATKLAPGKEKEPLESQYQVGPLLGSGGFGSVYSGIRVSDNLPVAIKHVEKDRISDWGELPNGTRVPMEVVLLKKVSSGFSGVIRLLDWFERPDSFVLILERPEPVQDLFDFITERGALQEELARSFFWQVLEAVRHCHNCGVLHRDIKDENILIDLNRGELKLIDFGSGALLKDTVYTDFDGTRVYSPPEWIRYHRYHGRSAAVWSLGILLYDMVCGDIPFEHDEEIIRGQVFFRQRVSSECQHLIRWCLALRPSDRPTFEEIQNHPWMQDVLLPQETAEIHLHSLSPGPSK

[8] = target: RPS6KA1 KD2 (human) (UniProt Q15418); assay: KINOMEscan competition binding; settings: compound 10.0 µM
Sequence of RPS6KA1 KD2 (human) (Q15418 whole entry, looked up): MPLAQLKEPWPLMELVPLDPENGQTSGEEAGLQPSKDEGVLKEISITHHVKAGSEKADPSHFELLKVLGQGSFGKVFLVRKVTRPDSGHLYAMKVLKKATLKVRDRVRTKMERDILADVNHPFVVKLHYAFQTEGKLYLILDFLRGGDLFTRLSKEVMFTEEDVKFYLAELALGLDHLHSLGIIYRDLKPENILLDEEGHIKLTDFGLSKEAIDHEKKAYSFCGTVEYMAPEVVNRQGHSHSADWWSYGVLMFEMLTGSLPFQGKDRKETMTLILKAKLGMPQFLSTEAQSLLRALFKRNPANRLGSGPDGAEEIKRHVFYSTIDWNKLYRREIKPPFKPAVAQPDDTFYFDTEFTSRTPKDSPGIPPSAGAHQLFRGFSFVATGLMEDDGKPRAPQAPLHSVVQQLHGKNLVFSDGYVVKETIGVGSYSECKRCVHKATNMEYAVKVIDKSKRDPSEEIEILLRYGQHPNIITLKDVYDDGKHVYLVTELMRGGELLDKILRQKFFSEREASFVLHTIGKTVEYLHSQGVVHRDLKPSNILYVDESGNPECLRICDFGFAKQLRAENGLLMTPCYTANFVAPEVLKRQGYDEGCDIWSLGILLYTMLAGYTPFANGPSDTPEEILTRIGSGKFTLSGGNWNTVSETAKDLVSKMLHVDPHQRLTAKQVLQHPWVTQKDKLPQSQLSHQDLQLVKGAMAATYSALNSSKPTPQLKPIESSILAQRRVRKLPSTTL

[9] = target: CDK7 (human) (UniProt P50613); assay: KINOMEscan competition binding; settings: compound 10.0 µM
[10] = target: MAPK12 (human) (UniProt P53778); assay: KINOMEscan competition binding; settings: compound 10.0 µM
[11] = target: MYLK4 (human) (UniProt Q86YV6); assay: KINOMEscan competition binding; settings: compound 10.0 µM
[12] = target: TAOK1 (human) (UniProt Q7L7X3); assay: KINOMEscan competition binding; settings: compound 10.0 µM
[13] = target: MAPK14 (human) (UniProt Q16539); assay: KINOMEscan competition binding; settings: compound 10.0 µM
[14] = target: PLK4 (human) (UniProt O00444); assay: KINOMEscan competition binding; settings: compound 10.0 µM
Sequence of PLK4 (human) (O00444 whole entry, looked up): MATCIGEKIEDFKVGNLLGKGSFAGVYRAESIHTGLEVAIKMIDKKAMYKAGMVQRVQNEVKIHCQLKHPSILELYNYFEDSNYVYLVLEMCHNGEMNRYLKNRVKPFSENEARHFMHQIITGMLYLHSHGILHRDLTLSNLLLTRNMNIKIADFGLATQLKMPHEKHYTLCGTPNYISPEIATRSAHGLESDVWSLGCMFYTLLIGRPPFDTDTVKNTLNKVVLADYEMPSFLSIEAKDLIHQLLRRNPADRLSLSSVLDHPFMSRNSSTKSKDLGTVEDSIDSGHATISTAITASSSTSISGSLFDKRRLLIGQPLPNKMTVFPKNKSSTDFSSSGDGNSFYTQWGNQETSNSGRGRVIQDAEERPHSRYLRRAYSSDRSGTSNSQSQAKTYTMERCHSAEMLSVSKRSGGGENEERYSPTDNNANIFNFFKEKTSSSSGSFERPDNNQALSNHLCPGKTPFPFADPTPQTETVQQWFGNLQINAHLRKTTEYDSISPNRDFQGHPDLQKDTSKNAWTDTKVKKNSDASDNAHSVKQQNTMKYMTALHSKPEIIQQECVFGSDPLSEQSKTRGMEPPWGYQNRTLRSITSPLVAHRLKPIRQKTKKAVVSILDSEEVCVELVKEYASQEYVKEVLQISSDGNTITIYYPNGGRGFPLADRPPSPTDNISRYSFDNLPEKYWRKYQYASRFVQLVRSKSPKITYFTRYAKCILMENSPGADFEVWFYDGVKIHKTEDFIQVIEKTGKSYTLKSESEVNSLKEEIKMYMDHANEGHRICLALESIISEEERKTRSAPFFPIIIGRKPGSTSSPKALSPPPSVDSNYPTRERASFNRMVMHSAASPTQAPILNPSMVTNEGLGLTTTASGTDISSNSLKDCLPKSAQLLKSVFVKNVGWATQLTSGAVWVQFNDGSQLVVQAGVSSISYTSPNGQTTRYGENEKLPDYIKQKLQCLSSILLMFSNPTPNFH

[15] = target: CLK2 (human) (UniProt P49760); assay: KINOMEscan competition binding; settings: compound 10.0 µM
Sequence of CLK2 (human) (P49760 whole entry, looked up): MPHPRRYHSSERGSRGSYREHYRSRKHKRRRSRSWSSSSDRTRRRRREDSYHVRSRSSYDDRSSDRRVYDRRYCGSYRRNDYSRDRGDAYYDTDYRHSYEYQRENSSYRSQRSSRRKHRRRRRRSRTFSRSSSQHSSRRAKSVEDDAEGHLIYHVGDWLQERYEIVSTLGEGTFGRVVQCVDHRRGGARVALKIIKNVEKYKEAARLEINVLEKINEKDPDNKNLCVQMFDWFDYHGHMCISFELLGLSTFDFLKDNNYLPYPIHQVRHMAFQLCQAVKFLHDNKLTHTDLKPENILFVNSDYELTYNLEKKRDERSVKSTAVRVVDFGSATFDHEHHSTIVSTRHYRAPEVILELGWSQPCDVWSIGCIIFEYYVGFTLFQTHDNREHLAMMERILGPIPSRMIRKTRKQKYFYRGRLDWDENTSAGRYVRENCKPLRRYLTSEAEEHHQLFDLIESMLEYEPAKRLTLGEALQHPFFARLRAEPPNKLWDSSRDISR

[16] = target: MAPK15 (human) (UniProt Q8TD08); assay: KINOMEscan competition binding; settings: compound 10.0 µM
[17] = target: PIM3 (human) (UniProt Q86V86); assay: KINOMEscan competition binding; settings: compound 10.0 µM
[18] = target: MAPK10 (human) (UniProt P53779); assay: KINOMEscan competition binding; settings: compound 10.0 µM
[19] = target: HIPK1 (human) (UniProt Q86Z02); assay: KINOMEscan competition binding; settings: compound 10.0 µM
[20] = target: TLK2 (human) (UniProt Q86UE8); assay: KINOMEscan competition binding; settings: compound 10.0 µM
[21] = target: MAPK9 (human) (UniProt P45984); assay: KINOMEscan competition binding; settings: compound 10.0 µM
[22] = target: PIM2 (human) (UniProt Q9P1W9); assay: SelectScreen, TR FRET
[23] = target: PIM1 (human) (UniProt P11309); assay: SelectScreen, TR FRET
[24] = target: PLK3 (human) (UniProt Q9H4B4); assay: KINOMEscan competition binding; settings: compound 10.0 µM
[25] = target: CLK1 (human) (UniProt P49759); assay: KINOMEscan competition binding; settings: compound 10.0 µM
[26] = target: PRKD1 (human) (UniProt Q15139); assay: KINOMEscan competition binding; settings: compound 10.0 µM
[27] = target: RPS6KA6 KD2 (human) (UniProt Q9UK32); assay: KINOMEscan competition binding; settings: compound 10.0 µM
[28] = target: STK33 (human) (UniProt Q9BYT3); assay: KINOMEscan competition binding; settings: compound 10.0 µM
[29] = target: CAMK2A (human) (UniProt Q9UQM7); assay: KINOMEscan competition binding; settings: compound 10.0 µM
[30] = target: DCLK1 (human) (UniProt O15075); assay: KINOMEscan competition binding; settings: compound 10.0 µM
[31] = target: RPS6KA2 KD2 (human) (UniProt Q15349); assay: KINOMEscan competition binding; settings: compound 10.0 µM
[32] = target: DAPK1 (human) (UniProt P53355); assay: KINOMEscan competition binding; settings: compound 10.0 µM
[33] = target: CAMK1D (human) (UniProt Q8IU85); assay: KINOMEscan competition binding; settings: compound 10.0 µM
[34] = target: SLK (human) (UniProt Q9H2G2); assay: KINOMEscan competition binding; settings: compound 10.0 µM
[35] = target: FER (human) (UniProt P16591); assay: KINOMEscan competition binding; settings: compound 10.0 µM
[36] = target: DAPK3 (human) (UniProt O43293); assay: KINOMEscan competition binding; settings: compound 10.0 µM
[37] = target: INSRR (human) (UniProt P14616); assay: KINOMEscan competition binding; settings: compound 10.0 µM
Sequence of INSRR (human) (P14616 whole entry, looked up): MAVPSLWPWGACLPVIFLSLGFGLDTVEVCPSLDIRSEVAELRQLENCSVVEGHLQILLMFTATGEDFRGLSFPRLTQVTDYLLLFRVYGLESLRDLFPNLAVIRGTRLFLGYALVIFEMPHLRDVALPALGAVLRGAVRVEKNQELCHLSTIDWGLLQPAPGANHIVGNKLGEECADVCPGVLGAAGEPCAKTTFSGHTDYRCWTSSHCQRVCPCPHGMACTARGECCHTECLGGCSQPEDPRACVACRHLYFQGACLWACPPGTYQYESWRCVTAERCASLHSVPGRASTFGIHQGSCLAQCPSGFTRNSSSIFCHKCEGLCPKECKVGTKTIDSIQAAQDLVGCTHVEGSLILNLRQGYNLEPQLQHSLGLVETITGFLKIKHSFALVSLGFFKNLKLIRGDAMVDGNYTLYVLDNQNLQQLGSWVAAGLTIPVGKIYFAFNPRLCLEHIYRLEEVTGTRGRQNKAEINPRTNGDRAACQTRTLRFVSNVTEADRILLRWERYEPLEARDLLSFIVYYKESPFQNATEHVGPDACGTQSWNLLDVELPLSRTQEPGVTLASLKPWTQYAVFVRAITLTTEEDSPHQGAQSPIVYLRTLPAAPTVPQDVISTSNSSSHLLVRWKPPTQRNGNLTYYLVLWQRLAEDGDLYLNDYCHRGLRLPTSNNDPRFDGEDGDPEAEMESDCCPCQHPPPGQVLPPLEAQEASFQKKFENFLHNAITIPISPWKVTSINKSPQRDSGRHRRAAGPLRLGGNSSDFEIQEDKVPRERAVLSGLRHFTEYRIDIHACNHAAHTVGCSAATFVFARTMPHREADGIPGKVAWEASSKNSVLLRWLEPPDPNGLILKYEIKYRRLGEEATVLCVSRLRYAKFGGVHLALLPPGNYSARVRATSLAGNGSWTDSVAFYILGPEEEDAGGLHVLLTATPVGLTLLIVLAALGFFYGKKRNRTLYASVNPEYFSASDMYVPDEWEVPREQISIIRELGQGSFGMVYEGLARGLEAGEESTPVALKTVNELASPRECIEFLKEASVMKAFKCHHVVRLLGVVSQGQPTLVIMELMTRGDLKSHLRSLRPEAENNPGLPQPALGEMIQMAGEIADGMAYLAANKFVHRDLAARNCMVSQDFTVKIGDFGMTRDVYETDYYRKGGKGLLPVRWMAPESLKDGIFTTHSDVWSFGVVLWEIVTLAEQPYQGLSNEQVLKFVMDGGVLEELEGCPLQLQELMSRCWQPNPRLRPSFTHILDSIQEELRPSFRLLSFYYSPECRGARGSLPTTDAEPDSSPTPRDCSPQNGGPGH

[38] = target: TNK1 (human) (UniProt Q13470); assay: KINOMEscan competition binding; settings: compound 10.0 µM
[39] = target: DCLK2 (human) (UniProt Q8N568); assay: KINOMEscan competition binding; settings: compound 10.0 µM
[40] = target: INSR (human) (UniProt P06213); assay: KINOMEscan competition binding; settings: compound 10.0 µM
[41] = target: ALK (human) (UniProt Q9UM73); assay: KINOMEscan competition binding; settings: compound 10.0 µM
[42] = target: PRKD3 (human) (UniProt O94806); assay: KINOMEscan competition binding; settings: compound 10.0 µM
[43] = target: IGF1R (human) (UniProt P08069); assay: KINOMEscan competition binding; settings: compound 10.0 µM
[44] = target: PTK2 (human) (UniProt Q05397); assay: KINOMEscan competition binding; settings: compound 10.0 µM
[45] = target: DAPK2 (human) (UniProt Q9UIK4); assay: KINOMEscan competition binding; settings: compound 10.0 µM
[46] = target: PTK2B (human) (UniProt Q14289); assay: KINOMEscan competition binding; settings: compound 10.0 µM
[47] = target: MYLK (human) (UniProt Q15746); assay: KINOMEscan competition binding; settings: compound 10.0 µM
[48] = target: GAK (human) (UniProt O14976); assay: KINOMEscan competition binding; settings: compound 10.0 µM
[49] = target: TTK (human) (UniProt P33981); assay: SelectScreen, TR FRET

SMILES: CN(C)C1=NC(=O)/C(=C/c2ccc(-c3ccc(S(N)(=O)=O)cc3)o2)S1
- kinase still bound, per cent of control [1]: 33%
- kinase still bound, per cent of control [2]: 0.45%
- kinase still bound, per cent of control [3]: 31%
- kinase still bound, per cent of control [4]: 9%
- kinase still bound, per cent of control [5]: 16%
- kinase still bound, per cent of control [6]: 3.4%
- kinase still bound, per cent of control [7]: 3.5%
- kinase still bound, per cent of control [8]: 31%
- kinase still bound, per cent of control [9]: 22%
- kinase still bound, per cent of control [10]: 33%
- kinase still bound, per cent of control [11]: 24%
- kinase still bound, per cent of control [12]: 9.2%
- kinase still bound, per cent of control [13]: 21%
- kinase still bound, per cent of control [14]: 0.7%
- kinase still bound, per cent of control [15]: 33%
- kinase still bound, per cent of control [16]: 19%
- kinase still bound, per cent of control [17]: 2.9%
- kinase still bound, per cent of control [18]: 22%
- kinase still bound, per cent of control [19]: 4.3%
- kinase still bound, per cent of control [20]: 33%
- kinase still bound, per cent of control [21]: 8.1%
- IC50 [22]: 6450 nM
- IC50 [23]: 1890 nM

SMILES: COc1cc(C(=O)NC2CCN(C)CC2)ccc1Nc1ncc2c(n1)N(C1CCCC1)CCC(=O)N2C
- kinase still bound, per cent of control [24]: 0%
- kinase still bound, per cent of control [25]: 27%
- kinase still bound, per cent of control [26]: 28%
- kinase still bound, per cent of control [27]: 14%
- kinase still bound, per cent of control [28]: 5.2%
- kinase still bound, per cent of control [29]: 21%
- kinase still bound, per cent of control [30]: 6.1%
- kinase still bound, per cent of control [31]: 14%
- kinase still bound, per cent of control [32]: 4%
- Kd [4]: 576 nM
- kinase still bound, per cent of control [4]: 5.2%
- kinase still bound, per cent of control [33]: 29%
- kinase still bound, per cent of control [34]: 12%
- kinase still bound, per cent of control [35]: 33%
- kinase still bound, per cent of control [36]: 11%
- kinase still bound, per cent of control [8]: 25%
- kinase still bound, per cent of control [37]: 19%
- kinase still bound, per cent of control [38]: 28%
- kinase still bound, per cent of control [39]: 8.6%
- kinase still bound, per cent of control [40]: 32%
- kinase still bound, per cent of control [41]: 16%
- kinase still bound, per cent of control [42]: 32%
- kinase still bound, per cent of control [14]: 11%
- kinase still bound, per cent of control [43]: 20%
- kinase still bound, per cent of control [15]: 21%
- kinase still bound, per cent of control [44]: 2.6%
- kinase still bound, per cent of control [45]: 12%
- kinase still bound, per cent of control [46]: 26%
- kinase still bound, per cent of control [47]: 2.2%
- kinase still bound, per cent of control [48]: 4.2%
- IC50 [49]: 2280 nM
